# pIC50: −log10 of the molar value.
# Experiments:
# [1] = test system: HTT mRNA; assay: Splicing RT-qPCR assay, HTT canonical (CJ) and alternative (AJ) junction mRNA; type: cell-based; conditions: Homo sapiens, A673 or K562 cells, 24 hours; for pIC50: decrease in canonical junction mRNA; for AC50: increase in alternative junction mRNA
# Summary of the method: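 RT-qPCR read-out: CJ and AJ junction isoforms quantified from cell lysates, normalized to housekeeping GAPDH/GUSB (K562) or PPIA (A673). Cells had 24 h compound exposure, 11-point 3-fold series from 10 uM final, ≤0.25% DMSO.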
# [2] = test system: MYB mRNA; assay: Gene panel canonical junction qPCR assay, MYB CJ mRNA decrease; type: cell-based, human; conditions: Homo sapiens, canonical junction qPCR, read-out: MYB IC50 (decrease in CJ mRNA levels)
# Summary of the method: (§1)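 A673 or K562 cells treated with compound; canonical exon-exon junction mRNA quantified by cDNA synthesis and RT-qPCR with junction-spanning primer/probe, normalized to GAPDH, GUSB or PPIA and DMSO (2^(−ΔΔCt)). Percent response from set ΔCt assay windows fitted to 4-parameter logistic; IC50 for CJ decrease.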
# [3] = test system: SMN2 mRNA; assay: Gene panel canonical junction qPCR assay, SMN2 CJ mRNA decrease; type: cell-based, human; conditions: Homo sapiens, canonical junction qPCR, read-out: SMN2 IC50 (decrease in CJ mRNA levels)
# Summary of the method: as §1
# [4] = test system: Target C mRNA; assay: Gene panel canonical junction qPCR assay, Target C CJ mRNA decrease; type: cell-based; conditions: Homo sapiens, canonical junction qPCR, read-out: Target C IC50 (decrease in CJ mRNA levels)
# Summary of the method: as §1
pIC50 [1],pIC50 [2],pIC50 [3],pIC50 [4],SMILES,AC50 [1] [nM]
6.00 to 7.00,> 7.00,> 7.00,6.00 to 7.00,Cc1cn2cc(NC(=O)c3ccc(N4C[C@@H](C)N[C@@H](C)C4)c4ncc(N(C)C)nc34)cc(F)c2n1 [Compound 283],100 to 1000
5.00 to 6.00,5.00 to 6.00,5.00 to 6.00,5.00 to 6.00,"Cc1cn2cc(NC(=O)c3ccc(N4CCN5CCOC[C@H]5C4)c4nccnc34)cc(F)c2n1 [Compound 256, (R)—N-(8-fluoro-2-methylimidazo[1,2-a]pyridin-6-yl)-8-(hexahydropyrazino[2,1-c][1,4]oxazin-8(1H)-yl)quinoxaline-5-carboxamide]",1000 to 10000
< 5.00,6.00 to 7.00,> 7.00,< 5.00,Cc1cn2cc(NC(=O)c3ccc(NC4CCNC4)c4nccnc34)cc(F)c2n1 (stereo not shown) [Compound 316],1000 to 10000
6.00 to 7.00,6.00 to 7.00,> 7.00,5.00 to 6.00,Cc1cn2cc(NC(=O)c3ccc(N4CCN(C)C5(CC5)C4)c4nccnc34)cc(F)c2n1 [Compound 364],1000 to 10000
5.00 to 6.00,6.00 to 7.00,> 7.00,5.00 to 6.00,Cc1cn2cc(NC(=O)c3ccc(N4CCNC5(CC5)C4)c4cccnc34)cc(F)c2n1 [Compound 341],1000 to 10000
5.00 to 6.00,6.00 to 7.00,> 7.00,5.00 to 6.00,Cc1cn2cc(NC(=O)c3ccc(N4CCN(CCO)C5(CC5)C4)c4nccnc34)cc(F)c2n1 [Compound 369],1000 to 10000
5.00 to 6.00,6.00 to 7.00,> 7.00,< 5.00,Cc1cn2cc(NC(=O)c3ccc(N4C[C@@H](C)N[C@@H](C)C4)c4nccnc34)cc(C#N)c2n1 [Compound 294],> 10000
5.00 to 6.00,6.00 to 7.00,> 7.00,< 5.00,Cc1cn2cc(NC(=O)c3ccc(N4CC[C@@H](N)C4)c4ccnnc34)cc(F)c2n1 [Compound 270],1000 to 10000
5.00 to 6.00,6.00 to 7.00,> 7.00,< 5.00,C[C@@H]1CN(c2ccc(C(=O)Nc3cc(F)c4nn(C)cc4c3)c3nccnc23)C[C@@H](C)N1 [Compound 335],> 10000
6.00 to 7.00,6.00 to 7.00,> 7.00,6.00 to 7.00,"Cc1cn2cc(NC(=O)c3ccc(N4CCC(NC5CC5)CC4)c4nccnc34)cc(F)c2n1 [Compound 258, 8-(4-(cyclopropylamino)piperidin-1-yl)-N-(8-fluoro-2-methylimidazo[1,2-a]pyridin-6-yl)quinoxaline-5-carboxamide]",100 to 1000
< 5.00,6.00 to 7.00,> 7.00,< 5.00,C[C@@H]1CN(c2ccc(C(=O)Nc3cc(F)c4nc(Cl)cn4c3)c3nccnc23)C[C@H](C)N1 [Compound 306],> 10000
5.00 to 6.00,5.00 to 6.00,> 7.00,5.00 to 6.00,Cc1cn2cc(NC(=O)c3ccc(N4CCNCC4)c4ccnnc34)c(C)cc2n1 [Compound 119],1000 to 10000
6.00 to 7.00,> 7.00,> 7.00,5.00 to 6.00,"Cc1cn2cc(NC(=O)c3ccc(N4CCC(NC5CC5)CC4)c4ccnnc34)cc(F)c2n1 [Compound 259, 5-[4-(cyclopropylamino)piperidin-1-yl]-N-{8-fluoro-2-methylimidazo[1,2-a]pyridin-6-yl} cinnoline-8-carboxamide]",100 to 1000
< 5.00,5.00 to 6.00,5.00 to 6.00,< 5.00,COc1nc2ccc(NC(=O)c3ccc(N4C[C@@H](C)N[C@@H](C)C4)c4nccnc34)cc2o1 [Compound 292],> 10000
5.00 to 6.00,> 7.00,> 7.00,5.00 to 6.00,"Cc1cn2cc(NC(=O)c3c(F)cc(N4C[C@@H](C)N[C@@H](C)C4)c4nccnc34)cc(F)c2n1 [Compound 261, cis-8-[(3R,5S)-3,5-dimethylpiperazin-1-yl]-6-fluoro-N-{8-fluoro-2-methylimidazo[1,2-a]pyridin-6-yl}quinoxaline-5-carboxamide]",1000 to 10000
6.00 to 7.00,6.00 to 7.00,> 7.00,5.00 to 6.00,"COc1nc2c(N3C[C@@H](C)N[C@@H](C)C3)ccc(C(=O)Nc3cc(F)c4nc(C)cn4c3)c2nc1C [Compound 260, 8-((3R,5S)-3,5-dimethylpiperazin-1-yl)-N-(8-fluoro-2-methylimidazo[1,2-a]pyridin-6-yl)-2-methoxy-3-methylquinoxaline-5-carboxamide; 2,2,2-trifluoroacetate]",1000 to 10000
5.00 to 6.00,6.00 to 7.00,> 7.00,5.00 to 6.00,"Cc1cn2cc(NC(=O)c3ccc([C@@]45CCNCC4C5)c4nccnc34)cc(F)c2n1 (stereo in doubt) [Compound 248, 8-{3-azabicyclo[4.1.0]heptan-6-yl}-N-{8-fluoro-2-methylimidazo[1,2-a]pyridin-6-yl}quinoxaline-5-carboxamide 2,2,2-trifluoroacetate]",> 10000
5.00 to 6.00,6.00 to 7.00,> 7.00,5.00 to 6.00,Cc1cn2cc(NC(=O)c3ccc(N4CCN[C@H](CF)C4)c4nccnc34)cc(F)c2n1 [Compound 366],1000 to 10000

# The next lines start with the compound.
SMILES,pIC50 [1],pIC50 [2],pIC50 [3],pIC50 [4],AC50 [1] [nM]
Cc1cn2cc(NC(=O)c3ccc(N4C[C@H](C)N[C@@H](C)C4)c4nccnc34)cc(F)c2n1 [Compound 313],5.00 to 6.00,> 7.00,> 7.00,5.00 to 6.00,1000 to 10000
"Cc1cn2cc(NC(=O)c3ccc(N4CCN5CCOC[C@@H]5C4)c4nccnc34)cc(F)c2n1 [Compound 255, (S)—N-(8-fluoro-2-methylimidazo[1,2-a]pyridin-6-yl)-8-(hexahydropyrazino[2,1-c][1,4]oxazin-8(1H)-yl)quinoxaline-5-carboxamide]",6.00 to 7.00,6.00 to 7.00,6.00 to 7.00,6.00 to 7.00,100 to 1000
Cc1cn2cc(NC(=O)c3ccc(N4CCC5(CCN5)C4)c4nccnc34)cc(F)c2n1 (stereo not shown) [Compound 339],5.00 to 6.00,6.00 to 7.00,> 7.00,5.00 to 6.00,1000 to 10000
CNc1nc(NC(=O)c2ccc(N3C[C@@H](C)N[C@@H](C)C3)c3nccnc23)cn2cc(C)nc12 [Compound 308],< 5.00,5.00 to 6.00,6.00 to 7.00,< 5.00,> 10000
Cc1cn2cc(NC(=O)c3ccc(N4CCNCC4)c4nccnc34)cc(F)c2n1 [Compound 111],5.00 to 6.00,6.00 to 7.00,> 7.00,5.00 to 6.00,1000 to 10000
Cc1cn2cc(NC(=O)c3ccc(N4CC[C@@H](N)C4)c4nccnc34)cc(F)c2n1 [Compound 315],< 5.00,6.00 to 7.00,> 7.00,< 5.00,1000 to 10000
Cc1cn2cc(NC(=O)c3ccc(N4CCN[C@H](CO)C4)c4nccnc34)cc(F)c2n1 [Compound 362],5.00 to 6.00,6.00 to 7.00,> 7.00,5.00 to 6.00,1000 to 10000
"Cc1cn2cc(NC(=O)c3ccc(C4=CCNCC4)c4nccnc34)cc(F)c2n1 [Compound 240, N-{8-fluoro-2-methylimidazo[1,2-a]pyridin-6-yl}-8-(1,2,3,6-tetrahydropyridin-4-yl)quinoxaline-5-carboxamide]",> 7.00,> 7.00,> 7.00,6.00 to 7.00,100 to 1000
Cc1cn2cc(NC(=O)c3ccc(N4C[C@@H](C)N[C@@H](C)C4)c4nccnc34)nc(Cl)c2n1 [Compound 279],< 5.00,> 7.00,> 7.00,< 5.00,> 10000
Cc1ccc2cc(NC(=O)c3ccc(N4C[C@@H](C)N[C@@H](C)C4)c4nccnc34)cc(F)c2n1 [Compound 353],< 5.00,< 5.00,6.00 to 7.00,< 5.00,> 10000
"CN[C@@H]1CCN(c2ccc(C(=O)Nc3cc(F)c4nc(C)cn4c3)c3nnccc23)C1 [Compound 238, (R)—N-(8-fluoro-2-methylimidazo[1,2-a]pyridin-6-yl)-5-(3-(methylamino)pyrrolidin-1-yl)cinnoline-8-carboxamide]",5.00 to 6.00,> 7.00,> 7.00,5.00 to 6.00,1000 to 10000
COc1nc(NC(=O)c2ccc(N3C[C@@H](C)N[C@@H](C)C3)c3nccnc23)nc2cn(C)nc12 [Compound 287],< 5.00,5.00 to 6.00,5.00 to 6.00,< 5.00,> 10000
Cc1cn2cc(NC(=O)c3ccc(N4CCN[C@@H](CF)C4)c4nccnc34)cc(F)c2n1 [Compound 367],5.00 to 6.00,5.00 to 6.00,6.00 to 7.00,5.00 to 6.00,1000 to 10000
COc1cn2cc(NC(=O)c3ccc(N4C[C@@H](C)N[C@@H](C)C4)c4nccnc34)cc(F)c2n1 [Compound 357],< 5.00,< 5.00,6.00 to 7.00,< 5.00,> 10000

# — US20240409536A1, “COMPOUNDS AND METHODS FOR MODULATING SPLICING” (REMIX THERAPEUTICS INC., priority 2021, published 2024)
